One experiment concerns BET BD2. Particulars: public sources, not a head-to-head trial, cited from earlier work; for BD2: comparator BET inhibitors; for Selectivity (BD1/BD2): comparator.
The next experiment addresses T1, BRD4 BD1 (Homo sapiens, UniProt O60885).
T1 construct: HEK293 cells were transfected using NanoLuc-BRD4-BD1 or NanoLuc-BRD4-BD2 fusion vectors
Put plainly: NanoBRET bromodomain assay, NanoLuc-BRD4-BD1 in HEK293 cells. It is filed as binding. The method, then: Exemplary compounds of the disclosure are active against BRD4 BD2 and selective over BRD4 BD1. BRD4 is a representative example of the BET family, as the binding sites of all BET family members are structurally similar. […] IC50s and fold selectivity's are determined as described below and are represented in Table 1.
(§1) Plates were then incubated at 37° C.+5% CO2 incubator for 2 hours.
(§2) Fold Selectivity Calculated (IC50 BD1/IC50 BD2).
(Bioluminescence resonance energy transfer reports proximity on the nanometre scale.)

Another experiment concerns the target T2, BRD4 BD2 (Homo sapiens, UniProt O60885).
T2 construct: HEK293 cells were transfected using NanoLuc-BRD4-BD1 or NanoLuc-BRD4-BD2 fusion vectors
The experiment can be described thus: NanoBRET bromodomain assay, NanoLuc-BRD4-BD2 in HEK293 cells. The class given is binding. Particulars: for Fold Selectivity BRD4 BD1/BD2: IC50 BD1/IC50 BD2, qualitative if an IC50 is at the upper limit. How it is done: as §1, §2

Like-named read-outs stand apart in the source and are kept apart here.

On to `CNc1nc(-c2nc3ccc(N4CCN(C)CC4)cc3n2Cc2ccccc2)cn2c(C)nnc12` [BI-894999], for which the BD2 with BET BD2 is listed as 41 nM. Also, the “Selectivity (BD1/BD2)” value in the experiment on BET BD2 (nanoBRET assay) is 0.1x.
In the case of `Cc1cccc(C)c1Oc1cn(C)c(=O)cc1-c1cn(C)c(=O)c2[nH]c(-c3cc(CO)ccc3F)cc12` [Example 92], the values for the IC50 on BRD4 BD1 and on BRD4 BD2 were over 1 µM and 0.01 to 0.05 µM, respectively. The “Fold Selectivity BRD4 BD1/BD2” value on BRD4 BD2 is “xxx (Fold >200 and ≤1000)”.
With `Cc1cccc(C)c1Oc1cn(C)c(=O)cc1-c1cn(C)c(=O)c2[nH]c(-c3ccc(F)c(F)c3F)cc12` [Example 93], the IC50 on BRD4 BD1 was over 1 µM. At BRD4 BD2, the IC50 fell in the range of 0.05 to 0.2 µM; the “Fold Selectivity BRD4 BD1/BD2” value is “xx (Fold >50 and ≤200)”.
In turn, `Cc1cccc(C)c1Oc1cn(C2CC2)c(=O)cc1-c1cn(C)c(=O)c2[nH]c(-c3cn(C)nc3C)cc12` [Example 94] came in with an IC50 at BRD4 BD1 of over 1 µM. Besides, on BRD4 BD2, the IC50 was 0.01 to 0.05 µM; the “Fold Selectivity BRD4 BD1/BD2” value is “xxx (Fold >200 and ≤1000)”.
`Cc1cccc(C)c1Oc1cn(C)c(=O)cc1-c1cn(C)c(=O)c2[nH]c(-c3cccc(C(F)F)c3F)cc12` [Example 95] gave an IC50 on BRD4 BD1 of over 1 µM. For the same molecule, at BRD4 BD2, the concentration for half-maximal inhibition (IC50) was in the range of 0.05 to 0.2 µM; the “Fold Selectivity BRD4 BD1/BD2” value is “xx (Fold >50 and ≤200)”.
`Cc1cccc(C)c1Oc1cn(C)c(=O)cc1-c1cn(C)c(=O)c2[nH]c(-c3cnn(CC#N)c3)cc12` [Example 96]: the IC50 against BRD4 BD1 was in the range of 0.5 to 1 µM. Further, on BRD4 BD2, the IC50 was in the range of 0.01 to 0.05 µM; the “Fold Selectivity BRD4 BD1/BD2” value is “x (Fold >2 and ≤50)”.
In turn, `Cc1cccc(C)c1Oc1cn(C)c(=O)cc1-c1cn(C)c(=O)c2[nH]c(-c3ccc(OC(F)F)cc3F)cc12` [Example 97] came in with an IC50 against BRD4 BD1 of over 1 µM. On BRD4 BD2, the IC50 is 0.01 to 0.05 µM; the “Fold Selectivity BRD4 BD1/BD2” value was “xxx (Fold >200 and ≤1000)”.
Consider `Cc1cccc(C)c1Oc1cn(C)c(=O)cc1-c1cn(C)c(=O)c2[nH]c(-c3cccc(C(F)(F)F)c3F)cc12` [Example 98], for which the IC50 against BRD4 BD1 is over 1 µM. For the same molecule, on BRD4 BD2, the IC50 was 0.05 to 0.2 µM; the “Fold Selectivity BRD4 BD1/BD2” value was “xx (Fold >50 and ≤200)”.
At BRD4 BD1, `Cc1cccc(-c2cc3c(-c4cc(=O)n(C)cc4Oc4c(C)cccc4C)cn(C)c(=O)c3[nH]2)c1F` [Example 99] showed an IC50 of over 1 µM. For the same molecule, on BRD4 BD2, the IC50 fell in the range of 0.01 to 0.05 µM; the “Fold Selectivity BRD4 BD1/BD2” value was “xxx (Fold >200 and ≤1000)”.
As to `Cc1sc2c(c1C)C(c1ccc(Cl)cc1)=N[C@@H](CC(=O)Nc1ccc(O)cc1)c1nnc(C)n1-2` [MK-8628/OTX-015], the BD2 in the experiment with BET BD2 was 26 nM. The “Selectivity (BD1/BD2)” value in the experiment with BET BD2 (nanoBRET assay) is given as 1.5x.
As for `Cc1noc2c1-c1ccccc1C(c1ccc(Cl)cc1)=N[C@H]2CC(N)=O` [Pelabresib], in the experiment on BET BD2 (FRET), the “Selectivity (BD1/BD2)” value was 5x (FRET). In the experiment with BET BD2, the BD2 is 17 nM.
Turning to NUV-868, the “Selectivity (BD1/BD2)” value in the experiment on BET BD2 (FRET) was 1,460x (FRET). In the experiment with BET BD2, the BD2 is listed as 2 nM.

Usually IC50 stands for the point on the concentration scale where inhibition reaches its midpoint. Read a high IC50 as lower potency.
